Measured values: US9353090B2, “Heterocyclic carboxylic acids as activators of soluble guanylate cyclase” (Boehringer Ingelheim International GmbH, priority 2014, dated 2016)
Values after ≈ are worked out from the molar mass of the structure shown.

Assays:
[1] = molecular target: human soluble guanylate cyclase alpha 1 and beta 1 subunits (sGC) (Homo sapiens (Human), UniProt Q02108+Q02153); test: sGC cellular activator assay (cGMP, HTRF), in the presence and absence of 50% human serum; type: cell-based; settings: CHO cells stably expressing human sGC alpha 1/beta 1, preincubated with 40 microM ODQ; cGMP by HTRF; Table 2 does not state whether with or without 50% human serum
Sequence of human soluble guanylate cyclase alpha 1 and beta 1 subunits (sGC) (Q02108 whole entry partner): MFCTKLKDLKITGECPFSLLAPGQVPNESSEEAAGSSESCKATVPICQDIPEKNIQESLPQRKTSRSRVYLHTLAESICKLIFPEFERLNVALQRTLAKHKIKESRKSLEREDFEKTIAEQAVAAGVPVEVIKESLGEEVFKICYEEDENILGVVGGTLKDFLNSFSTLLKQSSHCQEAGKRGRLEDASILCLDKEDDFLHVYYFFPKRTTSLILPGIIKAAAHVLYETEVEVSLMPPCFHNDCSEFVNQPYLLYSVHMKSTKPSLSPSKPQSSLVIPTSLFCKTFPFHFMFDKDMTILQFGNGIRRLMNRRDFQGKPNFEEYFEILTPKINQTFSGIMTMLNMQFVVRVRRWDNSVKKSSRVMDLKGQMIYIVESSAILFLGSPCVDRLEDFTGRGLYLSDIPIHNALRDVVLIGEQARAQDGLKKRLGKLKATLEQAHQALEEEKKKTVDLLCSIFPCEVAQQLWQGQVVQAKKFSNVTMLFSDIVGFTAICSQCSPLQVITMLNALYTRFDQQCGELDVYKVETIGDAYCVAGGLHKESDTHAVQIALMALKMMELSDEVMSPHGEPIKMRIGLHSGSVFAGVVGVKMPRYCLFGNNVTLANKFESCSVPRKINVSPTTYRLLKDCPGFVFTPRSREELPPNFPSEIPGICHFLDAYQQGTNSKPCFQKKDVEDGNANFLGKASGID
Sequence of human soluble guanylate cyclase alpha 1 and beta 1 subunits (sGC) (Q02153 whole entry): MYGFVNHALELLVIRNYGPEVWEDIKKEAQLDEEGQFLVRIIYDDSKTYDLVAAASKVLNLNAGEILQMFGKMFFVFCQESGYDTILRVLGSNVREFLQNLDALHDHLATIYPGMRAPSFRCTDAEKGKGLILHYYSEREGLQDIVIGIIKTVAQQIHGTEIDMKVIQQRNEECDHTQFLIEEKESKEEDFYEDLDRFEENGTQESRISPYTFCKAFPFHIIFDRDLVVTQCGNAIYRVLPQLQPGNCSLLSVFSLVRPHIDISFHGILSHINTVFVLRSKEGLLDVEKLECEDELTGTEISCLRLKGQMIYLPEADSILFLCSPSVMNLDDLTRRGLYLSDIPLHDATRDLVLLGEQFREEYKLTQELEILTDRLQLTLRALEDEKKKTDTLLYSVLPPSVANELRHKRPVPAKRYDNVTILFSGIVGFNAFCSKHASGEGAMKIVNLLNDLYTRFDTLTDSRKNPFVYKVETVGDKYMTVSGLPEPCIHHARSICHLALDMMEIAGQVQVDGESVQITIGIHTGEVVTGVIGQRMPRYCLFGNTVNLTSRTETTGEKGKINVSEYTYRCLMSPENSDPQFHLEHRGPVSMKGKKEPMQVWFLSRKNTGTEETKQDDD
Outline: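 First, CHO-sGC (human α1β1) cells get 1 h ODQ at 40 microM with IBMX and 0.1% BSA. Finally, cGMP is quantified by HTRF and EC50 computed.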

[2] = Human liver microsome (HLM) metabolic stability assay; type: in vitro ADME; settings: human liver microsomes
Outline: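 Remaining parent measured by LC/MS/MS (ESI, MRM) at 5, 15, 30 and 60 min relative to 0 min. Incubation: 1 uM compound, HLMs, NADPH-started, 37° C., 60 min total, single replicate. Slope of ln(% remaining) gives t1/2 = 0.693/slope, then CLint, CLh and % Qh.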

physchem = settings: kinetic from dmso stock
[3] = pH 2.2, aqueous buffer, Solubility (pH 2.2)
[4] = pH 4.5, aqueous buffer, Solubility (pH 4.5)
[5] = pH 6.8, aqueous buffer, Solubility (pH 6.8)

Compound	EC50 [1] [nM]	Metabolic stability (Qh %), % hepatic blood flow [2] [%]	solubility at 24 h (physchem; [3]) [µg/mL]	solubility at 24 h (physchem; [4]) [µg/mL]	solubility at 24 h (physchem; [5]) [µg/mL]
CO[C@H]1CN(c2nc(-c3cccc(C)c3OCc3cc(C)c4c(c3)CCN(CC3COCCO3)C4)cs2)CC[C@H]1C(=O)O (some centres unmarked) [Compound 168]	53	<24	130 (≈ 214 µM)	87 (≈ 143 µM)	81 (≈ 133 µM)
CCc1cc(COc2c(C)cccc2-c2csc(N3CC[C@@H](C(=O)O)[C@@H](OC)C3)n2)cc2c1CN(C1CCOCC1)CC2 [Compound 170]	5	<24	130 (≈ 215 µM)	90 (≈ 149 µM)	79 (≈ 130 µM)
COc1cc(COc2c(C)cccc2-c2csc(N3CC[C@@H](C(=O)O)[C@@H](OC)C3)n2)cc2c1CN(C1CCOCC1)CC2 [Compound 171]	10	<24	140 (≈ 230 µM)	100 (≈ 165 µM)	99 (≈ 163 µM)
CO[C@H]1CN(c2nc(-c3cccc(C)c3OCc3cc(F)c4c(c3)CCN(C3CCOCC3)C4)cs2)CC[C@H]1C(=O)O [Compound 172]	7	<24	130 (≈ 218 µM)	98 (≈ 165 µM)	85 (≈ 143 µM)
CO[C@@H]1CN(c2nc(-c3cccc(C)c3OCc3ccc4c(c3C)CCN(C3CCOCC3)C4)cs2)CC[C@@H]1C(=O)O [Compound 173]	21	<24	120 (≈ 203 µM)	71 (≈ 120 µM)	75 (≈ 127 µM)
CO[C@@H]1CN(c2nc(-c3cccc(C)c3OCc3ccc4c(c3C)CCN(C3COC3)C4)cs2)CC[C@@H]1C(=O)O [Compound 174]	44	<24	120 (≈ 213 µM)	79 (≈ 140 µM)	83 (≈ 147 µM)
CO[C@@H]1CN(c2nc(-c3cccc(C)c3OCc3cc(C)c4c(c3)CCN(CC3COCCO3)C4)cs2)CC[C@@H]1C(=O)O (some centres unmarked) [Compound 175]	155	<24	140 (≈ 230 µM)	100 (≈ 165 µM)	95 (≈ 156 µM)
COc1cc(COc2c(C)cccc2-c2csc(N3CC[C@H](C(=O)O)[C@H](OC)C3)n2)cc2c1CN(C1CCOCC1)CC2 [Compound 177]	47	<24	140 (≈ 230 µM)	100 (≈ 165 µM)	96 (≈ 158 µM)
CO[C@H]1CN(c2nc(-c3cc(C)ccc3OCc3ccc4c(c3C)CCN(C3CCOCC3)C4)cs2)CC[C@H]1C(=O)O [Compound 178]	14	<24	110 (≈ 186 µM)	72 (≈ 122 µM)	5.1 (≈ 8.62 µM)
CO[C@H]1CN(c2nc(-c3cc(C)ccc3OCc3cc(C)c4c(c3)CCN(C3CCOCC3)C4)cs2)CC[C@H]1C(=O)O [Compound 180]	46	<24	120 (≈ 203 µM)	4.3 (≈ 7.27 µM)	0.73 (≈ 1.23 µM)
CO[C@H]1CN(c2nc(-c3cc(C)ccc3OCc3cc(C)c4c(c3C)CCN(C3CCOCC3)C4)cs2)CC[C@H]1C(=O)O [Compound 181]	23	<24	120 (≈ 198 µM)	53 (≈ 87.5 µM)	5 (≈ 8.25 µM)
CO[C@H]1CN(c2nc(-c3cc(C)ccc3OCc3ccc4c(c3C)CCN(C3CCOCC3)CC4)cs2)CC[C@H]1C(=O)O [Compound 182]	26	<24	120 (≈ 198 µM)	61 (≈ 101 µM)	55 (≈ 90.8 µM)
Cc1c(COc2ccccc2-c2ccnc(N3CC[C@@]4(C(=O)O)C[C@H]4C3)n2)ccc2c1CCN(C1CCOCC1)C2 [Compound 185]	21	33	100 (≈ 180 µM)	43 (≈ 77.5 µM)	42 (≈ 75.7 µM)
Cc1c(COc2ccccc2-c2ccnc(N3C[C@@H]4C[C@]4(C(=O)O)C3)n2)ccc2c1CCN(C1CCOCC1)C2 [Compound 188]	150	<24	110 (≈ 203 µM)	50 (≈ 92.5 µM)	54 (≈ 99.9 µM)
Cc1cccc(-c2ccnc(N3C[C@@H]4C[C@]4(C(=O)O)C3)n2)c1OCc1ccc2c(c1C)CCN(C1CCOCC1)C2 [Compound 189]	43	<24	110 (≈ 198 µM)	66 (≈ 119 µM)	66 (≈ 119 µM)
Cc1cc(COc2c(C)cccc2-c2ccnc(N3C[C@@H]4C[C@]4(C(=O)O)C3)n2)cc2c1CN(C1CCOCC1)CC2 [Compound 190]	17	<24	99 (≈ 178 µM)	71 (≈ 128 µM)	74 (≈ 133 µM)
